Literature values, collected in patent US8679052B2, “Method for accurately determining concentrations of diffusible materials” (priority 2009, dated 2014).

Tested on: red blood cells
Details: red blood cells suspended in buffer; in the first 1-2 minutes

Structure (SMILES): CC(=O)/N=c1/sc(S(N)(=O)=O)nn1C [methazolamide]
- decrease of buffer concentration (uptake by red blood cells): 50%
